Tests used:
Test in all cases: KINOMEscan competition binding
ALK (human) = ALK (human) (UniProt Q9UM73)
AURKB (human) = AURKB (human) (UniProt Q96GD4)
CDC42BPG (human) = CDC42BPG (human) (UniProt Q6DT37)
CDK19 (human) = CDK19 (human) (UniProt Q9BWU1)
CDK3 (human) = CDK3 (human) (UniProt Q00526)
CSK (human) = CSK (human) (UniProt P41240)
CSNK1D (human) = CSNK1D (human) (UniProt P48730)
FGFR3 (human) = FGFR3 (human) (UniProt P22607)
FGR (human) = FGR (human) (UniProt P09769)
GSK3B (human) = GSK3B (human) (UniProt P49841)
HIPK1 (human) = HIPK1 (human) (UniProt Q86Z02)
HIPK4 (human) = HIPK4 (human) (UniProt Q8NE63)
[1] = molecular target: JAK1 JH2 pseudokinase (human) (UniProt P23458)
MAP3K7 (human) = MAP3K7 (human) (UniProt O43318)
MAP4K4 (human) = MAP4K4 (human) (UniProt O95819)
MAPK13 (human) = MAPK13 (human) (UniProt O15264)
MAPK9 (human) = MAPK9 (human) (UniProt P45984)
MINK1 (human) = MINK1 (human) (UniProt Q8N4C8)
MKNK1 (human) = MKNK1 (human) (UniProt Q9BUB5)
MKNK2 (human) = MKNK2 (human) (UniProt Q9HBH9)
MST1R (human) = MST1R (human) (UniProt Q04912)
MUSK (human) = MUSK (human) (UniProt O15146)
MYLK3 (human) = MYLK3 (human) (UniProt Q32MK0)
Sequence of MYLK3 (human) (Q32MK0 whole entry, looked up): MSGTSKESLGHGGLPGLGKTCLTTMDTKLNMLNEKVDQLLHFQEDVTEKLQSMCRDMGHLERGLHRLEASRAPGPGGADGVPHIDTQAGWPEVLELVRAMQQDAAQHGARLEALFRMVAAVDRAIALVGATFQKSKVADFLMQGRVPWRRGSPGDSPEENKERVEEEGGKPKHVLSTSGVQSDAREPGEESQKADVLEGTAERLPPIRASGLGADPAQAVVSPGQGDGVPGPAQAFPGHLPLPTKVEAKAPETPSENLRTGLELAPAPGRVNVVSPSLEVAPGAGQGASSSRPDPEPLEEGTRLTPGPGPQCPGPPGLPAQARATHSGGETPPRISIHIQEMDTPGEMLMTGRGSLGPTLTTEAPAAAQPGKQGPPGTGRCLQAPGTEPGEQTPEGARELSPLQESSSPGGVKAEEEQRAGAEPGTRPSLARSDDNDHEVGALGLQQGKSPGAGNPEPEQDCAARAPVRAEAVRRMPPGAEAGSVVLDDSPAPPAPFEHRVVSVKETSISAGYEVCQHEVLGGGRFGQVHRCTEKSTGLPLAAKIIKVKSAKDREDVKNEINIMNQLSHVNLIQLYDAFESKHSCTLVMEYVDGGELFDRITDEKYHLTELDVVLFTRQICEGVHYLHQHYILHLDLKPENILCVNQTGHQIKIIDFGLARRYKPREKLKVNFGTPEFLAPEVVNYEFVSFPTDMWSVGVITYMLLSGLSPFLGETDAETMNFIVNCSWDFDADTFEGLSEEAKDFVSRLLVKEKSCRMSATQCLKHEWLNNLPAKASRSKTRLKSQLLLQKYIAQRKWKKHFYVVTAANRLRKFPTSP

NLK (human) = NLK (human) (UniProt Q9UBE8)
PIK3CA (human) = PIK3CA (human) (UniProt P42336)
[2] = molecular target: PIK3CA (human), P42336 [E545K]
PIM1 (human) = PIM1 (human) (UniProt P11309)
PIM2 (human) = PIM2 (human) (UniProt Q9P1W9)
Sequence of PIM2 (human) (Q9P1W9 whole entry, looked up): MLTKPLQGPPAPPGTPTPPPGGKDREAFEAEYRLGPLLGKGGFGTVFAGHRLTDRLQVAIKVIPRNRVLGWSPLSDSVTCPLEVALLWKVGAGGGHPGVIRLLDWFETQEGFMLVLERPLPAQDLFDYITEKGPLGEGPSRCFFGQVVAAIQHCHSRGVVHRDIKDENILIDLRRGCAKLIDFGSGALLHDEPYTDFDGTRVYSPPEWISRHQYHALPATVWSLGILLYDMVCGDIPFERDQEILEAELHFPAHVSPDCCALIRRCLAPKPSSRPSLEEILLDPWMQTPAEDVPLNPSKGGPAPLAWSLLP

PRKD1 (human) = PRKD1 (human) (UniProt Q15139)
PTK2 (human) = PTK2 (human) (UniProt Q05397)
PTK6 (human) = PTK6 (human) (UniProt Q13882)
RPS6KA4 KD2 (human) = RPS6KA4 KD2 (human) (UniProt O75676)
SIK1 (human) = SIK1 (human) (UniProt P57059)
STK10 (human) = STK10 (human) (UniProt O94804)
STK25 (human) = STK25 (human) (UniProt O00506)
STK35 (human) = STK35 (human) (UniProt Q8TDR2)
SYK (human) = SYK (human) (UniProt P43405)
TEC (human) = TEC (human) (UniProt P42680)
TEK (human) = TEK (human) (UniProt Q02763)
TIE1 (human) = TIE1 (human) (UniProt P35590)
TXK (human) = TXK (human) (UniProt P42681)

Sequence of ALK (human) (Q9UM73 whole entry, looked up): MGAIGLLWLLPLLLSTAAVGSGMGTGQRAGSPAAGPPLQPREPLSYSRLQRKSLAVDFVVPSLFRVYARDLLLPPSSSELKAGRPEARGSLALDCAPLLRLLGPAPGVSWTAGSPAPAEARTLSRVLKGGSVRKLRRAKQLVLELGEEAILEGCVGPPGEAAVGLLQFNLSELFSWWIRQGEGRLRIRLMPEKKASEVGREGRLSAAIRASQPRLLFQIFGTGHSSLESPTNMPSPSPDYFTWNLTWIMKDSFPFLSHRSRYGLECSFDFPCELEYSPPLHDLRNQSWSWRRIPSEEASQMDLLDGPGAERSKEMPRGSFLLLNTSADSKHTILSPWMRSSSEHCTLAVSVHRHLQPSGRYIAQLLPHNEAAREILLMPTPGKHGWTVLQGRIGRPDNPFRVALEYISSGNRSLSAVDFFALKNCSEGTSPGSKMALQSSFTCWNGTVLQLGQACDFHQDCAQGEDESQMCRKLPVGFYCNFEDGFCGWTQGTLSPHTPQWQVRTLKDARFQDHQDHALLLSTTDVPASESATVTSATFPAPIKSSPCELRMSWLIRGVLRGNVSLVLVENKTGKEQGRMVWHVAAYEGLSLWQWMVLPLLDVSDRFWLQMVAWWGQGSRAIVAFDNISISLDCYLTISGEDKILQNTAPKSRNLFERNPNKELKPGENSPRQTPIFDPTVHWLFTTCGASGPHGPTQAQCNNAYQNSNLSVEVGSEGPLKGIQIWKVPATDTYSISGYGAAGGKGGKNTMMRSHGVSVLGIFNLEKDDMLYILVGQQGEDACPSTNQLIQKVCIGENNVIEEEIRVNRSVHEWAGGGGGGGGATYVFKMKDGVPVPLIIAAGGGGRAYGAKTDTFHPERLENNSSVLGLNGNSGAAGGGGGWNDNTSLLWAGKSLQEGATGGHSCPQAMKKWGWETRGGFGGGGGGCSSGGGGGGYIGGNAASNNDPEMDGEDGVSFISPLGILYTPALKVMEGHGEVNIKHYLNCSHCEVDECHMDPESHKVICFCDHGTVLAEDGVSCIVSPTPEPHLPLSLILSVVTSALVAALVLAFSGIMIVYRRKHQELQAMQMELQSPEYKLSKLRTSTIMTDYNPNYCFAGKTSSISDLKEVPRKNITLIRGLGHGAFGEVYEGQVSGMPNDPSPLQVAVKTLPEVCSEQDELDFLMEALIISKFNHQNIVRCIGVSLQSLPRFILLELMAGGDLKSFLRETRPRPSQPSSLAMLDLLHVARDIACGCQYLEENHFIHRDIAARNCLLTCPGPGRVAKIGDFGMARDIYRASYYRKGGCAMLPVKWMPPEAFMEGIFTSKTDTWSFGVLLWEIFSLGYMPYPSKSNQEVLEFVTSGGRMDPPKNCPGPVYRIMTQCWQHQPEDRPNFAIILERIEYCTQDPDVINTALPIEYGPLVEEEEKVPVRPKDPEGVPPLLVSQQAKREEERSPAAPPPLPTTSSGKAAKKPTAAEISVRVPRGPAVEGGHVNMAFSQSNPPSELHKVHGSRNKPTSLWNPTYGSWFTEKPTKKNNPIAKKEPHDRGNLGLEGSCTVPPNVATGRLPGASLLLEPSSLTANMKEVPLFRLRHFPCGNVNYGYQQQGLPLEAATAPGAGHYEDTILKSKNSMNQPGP
Sequence of CDC42BPG (human) (Q6DT37 whole entry, looked up): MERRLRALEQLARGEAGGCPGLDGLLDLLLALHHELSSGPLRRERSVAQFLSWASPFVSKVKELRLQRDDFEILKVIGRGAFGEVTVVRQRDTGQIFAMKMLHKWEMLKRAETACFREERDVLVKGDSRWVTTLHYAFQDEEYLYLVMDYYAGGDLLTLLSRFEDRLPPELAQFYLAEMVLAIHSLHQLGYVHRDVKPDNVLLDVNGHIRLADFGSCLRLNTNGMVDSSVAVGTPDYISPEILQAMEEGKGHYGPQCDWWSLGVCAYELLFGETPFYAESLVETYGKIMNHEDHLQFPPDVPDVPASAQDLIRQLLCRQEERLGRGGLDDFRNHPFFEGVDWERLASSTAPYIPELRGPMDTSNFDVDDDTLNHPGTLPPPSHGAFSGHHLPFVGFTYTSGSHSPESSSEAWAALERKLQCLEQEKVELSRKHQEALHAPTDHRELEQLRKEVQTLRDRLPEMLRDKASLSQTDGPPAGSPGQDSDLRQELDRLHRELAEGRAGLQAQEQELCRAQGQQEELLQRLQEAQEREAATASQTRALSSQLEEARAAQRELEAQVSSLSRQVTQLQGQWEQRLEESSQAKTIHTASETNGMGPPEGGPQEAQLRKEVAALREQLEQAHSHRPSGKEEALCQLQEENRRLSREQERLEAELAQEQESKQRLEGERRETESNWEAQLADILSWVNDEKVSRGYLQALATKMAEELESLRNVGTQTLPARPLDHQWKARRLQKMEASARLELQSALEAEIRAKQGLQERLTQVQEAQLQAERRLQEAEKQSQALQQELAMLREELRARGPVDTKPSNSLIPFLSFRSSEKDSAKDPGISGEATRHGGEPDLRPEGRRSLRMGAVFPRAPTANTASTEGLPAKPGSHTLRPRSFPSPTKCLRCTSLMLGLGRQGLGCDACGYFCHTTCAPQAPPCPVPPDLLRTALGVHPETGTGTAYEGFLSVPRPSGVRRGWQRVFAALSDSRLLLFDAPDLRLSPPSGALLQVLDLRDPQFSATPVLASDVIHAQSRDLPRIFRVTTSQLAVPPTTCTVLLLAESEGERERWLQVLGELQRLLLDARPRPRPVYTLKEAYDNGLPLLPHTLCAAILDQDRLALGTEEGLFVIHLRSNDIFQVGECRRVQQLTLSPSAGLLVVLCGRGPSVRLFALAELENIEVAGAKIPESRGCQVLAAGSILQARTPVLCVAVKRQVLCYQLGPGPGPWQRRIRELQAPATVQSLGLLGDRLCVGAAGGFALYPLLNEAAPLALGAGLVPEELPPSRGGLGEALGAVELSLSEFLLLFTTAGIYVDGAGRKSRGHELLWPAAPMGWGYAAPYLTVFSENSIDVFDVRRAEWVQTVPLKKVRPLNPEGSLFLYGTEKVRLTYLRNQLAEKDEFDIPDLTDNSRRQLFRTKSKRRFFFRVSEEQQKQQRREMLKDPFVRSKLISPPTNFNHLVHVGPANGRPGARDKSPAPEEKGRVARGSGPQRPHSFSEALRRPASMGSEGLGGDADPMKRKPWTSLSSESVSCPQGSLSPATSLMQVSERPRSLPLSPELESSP
Sequence of FGFR3 (human) (P22607 whole entry, looked up): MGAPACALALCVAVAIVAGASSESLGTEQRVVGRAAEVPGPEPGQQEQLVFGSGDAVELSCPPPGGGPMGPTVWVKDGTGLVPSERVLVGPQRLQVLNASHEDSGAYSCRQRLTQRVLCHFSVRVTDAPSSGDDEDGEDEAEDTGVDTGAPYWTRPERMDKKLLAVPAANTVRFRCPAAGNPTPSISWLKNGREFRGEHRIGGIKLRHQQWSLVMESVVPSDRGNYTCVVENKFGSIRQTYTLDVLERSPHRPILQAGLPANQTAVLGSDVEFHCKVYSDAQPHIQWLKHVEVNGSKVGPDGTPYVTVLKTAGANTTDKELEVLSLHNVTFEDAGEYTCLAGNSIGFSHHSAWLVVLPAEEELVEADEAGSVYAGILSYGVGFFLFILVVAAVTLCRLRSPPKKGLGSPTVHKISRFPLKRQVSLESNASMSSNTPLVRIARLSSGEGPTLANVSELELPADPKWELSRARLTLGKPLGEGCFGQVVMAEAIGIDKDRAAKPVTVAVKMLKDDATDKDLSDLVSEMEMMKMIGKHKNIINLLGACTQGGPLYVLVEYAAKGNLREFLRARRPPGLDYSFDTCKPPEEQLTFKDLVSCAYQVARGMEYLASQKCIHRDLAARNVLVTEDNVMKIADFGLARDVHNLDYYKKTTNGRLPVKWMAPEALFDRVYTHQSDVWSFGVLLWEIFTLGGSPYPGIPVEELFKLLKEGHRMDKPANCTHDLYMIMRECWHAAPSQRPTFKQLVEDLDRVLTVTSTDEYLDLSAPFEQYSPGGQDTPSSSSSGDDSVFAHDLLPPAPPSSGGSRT

Q: With `COc1cc2ncnc(Oc3cccc(NC(=O)Nc4cc(C(C)(C)C(F)(F)F)on4)c3)c2cc1OC` as the compound, how does the Kd (ALK (human)) read?
A: Its Kd is 34 µM.

Q: What about the Kd (AURKB (human)) of the same compound?
A: Its Kd is 25 µM.

Q: What about the Kd (CDC42BPG (human)) of the same compound?
A: Its Kd is 4.4 µM.

Q: And the Kd (CDK19 (human))?
A: Its Kd is 0.94 µM.

Q: What about the Kd (CDK3 (human)) of the same compound?
A: The Kd was 26 µM.

Q: And the Kd (CSK (human))?
A: The Kd was 0.7 µM.

Q: What about the Kd (CSNK1D (human)) of the same compound?
A: The Kd was 13 µM.

Q: What about the Kd (FGFR3 (human)) of the same compound?
A: The Kd was 3.3 µM.

Q: And the Kd (FGR (human))?
A: Its Kd is 0.11 µM.

Q: What about the Kd (GSK3B (human)) of the same compound?
A: Its Kd is 29 µM.

Q: What about the Kd (HIPK1 (human)) of the same compound?
A: The Kd was 4.7 µM.

Q: What about the Kd (HIPK4 (human)) of the same compound?
A: The Kd was 0.034 µM.

Q: What about the Kd [1] of the same compound?
A: The Kd was 33 µM.

Q: And the Kd (MAP3K7 (human))?
A: The Kd was 0.083 µM.

Q: What about the Kd (MAP4K4 (human)) of the same compound?
A: The Kd was 0.056 µM.

Q: What about the Kd (MAPK13 (human)) of the same compound?
A: Its Kd is 0.39 µM.

Q: What about the Kd (MAPK9 (human)) of the same compound?
A: Its Kd is 0.0041 µM.

Q: What about the Kd (MINK1 (human)) of the same compound?
A: The Kd was 0.36 µM.

Q: What about the Kd (MKNK1 (human)) of the same compound?
A: Its Kd is 2.6 µM.

Q: What about the Kd (MKNK2 (human)) of the same compound?
A: The Kd was 0.071 µM.

Q: What about the Kd (MST1R (human)) of the same compound?
A: The Kd was 6.4 µM.

Q: And the Kd (MUSK (human))?
A: The Kd was 0.034 µM.

Q: What about the Kd (MYLK3 (human)) of the same compound?
A: Its Kd is 26 µM.

Q: And the Kd (NLK (human))?
A: Its Kd is 0.27 µM.

Q: What about the Kd (PIK3CA (human)) of the same compound?
A: The Kd was 27 µM.

Q: What about the Kd [2] of the same compound?
A: The Kd was 29 µM.

Q: And the Kd (PIM1 (human))?
A: The Kd was 29 µM.

Q: What about the Kd (PIM2 (human)) of the same compound?
A: The Kd was 26 µM.

Q: And the Kd (PRKD1 (human))?
A: Its Kd is 7.3 µM.

Q: What about the Kd (PTK2 (human)) of the same compound?
A: The Kd was 7.5 µM.

Q: What about the Kd (PTK6 (human)) of the same compound?
A: The Kd was 0.2 µM.

Q: And the Kd (RPS6KA4 KD2 (human))?
A: Its Kd is 36 µM.

Q: And the Kd (SIK1 (human))?
A: Its Kd is 1.8 µM.

Q: And the Kd (STK10 (human))?
A: Its Kd is 0.0017 µM.

Q: What about the Kd (STK25 (human)) of the same compound?
A: Its Kd is 19 µM.

Q: What about the Kd (STK35 (human)) of the same compound?
A: Its Kd is 0.47 µM.

Q: And the Kd (SYK (human))?
A: The Kd was 0.26 µM.

Q: What about the Kd (TEC (human)) of the same compound?
A: Its Kd is 6 µM.

Q: What about the Kd (TEK (human)) of the same compound?
A: The Kd was 0.13 µM.

Q: What about the Kd (TIE1 (human)) of the same compound?
A: The Kd was 0.024 µM.

Q: What about the Kd (TXK (human)) of the same compound?
A: The Kd was 0.19 µM.

From the kinase profiling compilation of Christmann-Franck et al. (2016)
